{"source": "patent US20200009135A1", "about": "“THERAPEUTIC APPLICATIONS OF MALT1 INHIBITORS” (MEDIVIR AB, priority 2017, published 2020)", "key": {"[1]": {"test_system": "CMV-specific (NLV+) CD8+ Teff cells expressing IFNγ", "test": "Human whole blood loop assay with CMV lysate", "type": "cell-based", "conditions": "4 μM, 6 hours, alone and in combination with CMV lysate 1 μg/ml", "experimental": "Each blood loop contained 2 mL of freshly taken human whole blood from HLA-A2+ and CMV+ donors.\nFreshly drawn whole blood from healthy volunteers (2 mL) in a tube was incubated under rotation at 37° C. for 6 hours. […] After 2 hours Brefeldin-A was added to allow intra-cellular analysis of cytokines (IFNγ and TNFα). Antigen-specific CD8+ T-cells were identified by fluorescence-conjugated tetrameric complexes of HLA-A2 molecules loaded with the NLV peptide epitope ([…]) of CMV pp65,"}, "[2]": {"test_system": "IL-2 expression in Jurkat (E6-1) cells", "test": "IL-2 expression assay (down-stream MALT1 activity, Jurkat E6-1)", "type": "cell-based", "conditions": "Homo sapiens; Jurkat E6-1, PMA/Ionomycin stimulation, 24 hours", "experimental": "Down-stream MALT1 activity was measured by PMA/lonomycin-induced expression of IL-2 in Jurkat (E6-1) cells. Compounds were distributed in a 96 well plate, 8-point concentration series, 1:3 dilution. Jurkat clone E6-1, 4×10^4 cells/well, were added, and stimulated by PMA/lonomycin (1:500 dilution) for 24 hours at 37° C. Measurement was performed using a MesoScale Sector S600 with the Human IL-2 Tissue Culture kit according to the manufacturers recommendation."}, "[3]": {"test_system": "MB49 mouse bladder cancer", "test": "MB49 mouse bladder cancer model, Treg and Teff cells by flow cytometry", "type": "in vivo", "conditions": "C57BL/6 mice", "experimental": "Evaluation of Treg and Teff cell numbers was performed by flow cytometry. From a tumour sample (resected piece or biopsy), tumour cells and TILs are dispersed into single cell suspension. Cells are then washed with PBS and stained by antibodies. Samples were stained with antibodies to identify T-cell subpopulations; CD3-BV421 (Biolegend 100228), CD8-FITC (Biolegend 100706), CD4-PE (Biolegend 116005), CD25-PerCP Cy5.5 (Biolegend 101912, clone 3C7), for 15 minutes at room temperature, followed by addition of erythrocyte lysis buffer (cat no. 349202, BD BioSciences, Franklin Lakes, N.J., USA) for 8 minutes. Cells were permeabilized with FoxP3 fix/Perm (cat no. 421401, Biolegend San Diego, Calif., USA), washed with FoxP3 Perm buffer (Cat no. 421402, Biolegend) and stained with an Alexa Fluor® 647 labelled FoxP3 antibody (Cat no. 320013, Biolegend) according to the manufacturer's instructions. The cells were washed twice in PBS with 1% BSA and analyzed on a FACSCanto II (BD Biosciences). Data analysis was performed using FlowJo software (TreeStar, Ashland, Oreg., USA). For intracellular staining of cytokines, inclusion of transport inhibitors e.g. Monensin or Brefeldin A.\nThe murine bladder urothelial carcinoma cell line Mouse Bladder (MB)-49 is a C57BL/6-derived cell line cultured at 37 C and 5% CO2 in DMEM+GlutaMax supplemented with 10% FBS, 0.1 mM sodium pyruvate, 100 U/ml Penicillin-Streptomycin. For determining the effects of MALT1 inhibitor on the presence of T-effector and T-regulatory cells in vivo, 3×10^5 MB49 cells were injected s.c. on the right flank of female C57BL/6 mice. […] As reference 200 μg of anti-CD25 antibody (clone PC61) in 100 μL PBS was administered i.v. on day 8 and 11. The levels of Treg and Teff cells were analyzed by flow cytometry in the tumour (T) and in tumour-draining lymph nodes (TDLN) on day 12."}, "[4]": {"test": "Follow-up 5 day cell growth assay WSU-NHL (CC50)", "type": "cell-based", "conditions": "human, WSU-NHL cells"}, "[5]": {"conditions": "p.o. once daily day 8-11, two doses, analysed day 12"}}}
{"smiles": "CO[C@@H](C)c1c(NC(=O)Nc2cnc(-n3nccn3)c(Cl)c2)cnc2cc(Cl)nn12", "note": "[Example 2, (S)-1-(5-chloro-6-(2H-1,2,3-triazol-2-yl)pyridin-3-yl)-3-(2-chloro-7-(1-methoxyethyl)pyrazolo[1,5-a]pyrimidin-6-yl)urea]", "values": [{"measurement": "activated antigen-specific IFNγ+CD8+ T cells", "setting": "[1]", "value": "increase"}, {"measurement": "IC50", "setting": "[2]", "value": 0.01, "unit": "µM"}, {"measurement": "amount of CD8/CD25 double positive cells (Teff) in TDLN", "setting": "[3]; p.o. once daily day 8-11, analysed day 12", "value": "not reduced"}, {"measurement": "percentage of FOXP3 positive cells (Treg) out of CD3/CD4 double positive cells in tumour", "setting": "[3]; [5]", "value": "reduced, in a dose-dependent manner"}, {"measurement": "percentage of FOXP3 positive cells (Treg) out of CD3/CD4 double positive cells in tumour-draining lymph nodes", "setting": "[3]; [5]", "value": "reduced, in a dose-dependent manner"}, {"measurement": "CC50 at 5 days", "setting": "[4]", "value": 77, "unit": "µM"}]}
